Marks after values point to notes of the source that are not given here. Strand notation (5' to 3'): a small letter for the sugar, then the base; units joined by * are phosphorothioate-linked, units joined directly phosphodiester-linked; [ ] holds rarer units or linkages, { } end groups; capitals alone tell only the bases. [ms] = mesyl phosphoramidate linkage; e = 2'-O-(2-methoxyethyl) (MOE); k = constrained ethyl (cEt); [5mC] = 5-methylcytosine; d = 2'-deoxy (DNA)
Assays:
[1] = system: human APOE RNA; experiment: Dose-dependent inhibition of human APOE RNA in HepG2 cells, electroporation, 50,000 cells per well, RT-PCR normalized to GAPDH (Example 4, Tables 8-10); assay type: cell-based
Summary of the method: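 HepG2 cells, 50,000 per well, electroporated with modified oligonucleotide at various concentrations. APOE RNA quantified by RT-PCR with human primer probe set RTS3073, normalized to GAPDH. Values are percent APOE RNA relative to untreated control cells.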

[2] = system: human APOE RNA; experiment: Dose-dependent reduction of human APOE RNA in HepG2 cells, electroporation, 20,000 cells per well, normalized to PPIA (Example 4, Table 11); assay type: cell-based; conditions: HepG2 cells, 20,000 cells per well, approximately 24 hours
Protocol: HepG2 cells plated at a density of 20,000 cells per well were treated by electroporation with various concentrations of modified oligonucleotide as specified in the tables below. […] APOE RNA levels were measured using the human primer probe set RTS3073 (described herein above). APOE RNA levels were normalized to human PPIA. Human PPIA was amplified using human primer probe set mk_cycloA_2nd (forward sequence […], designated herein as SEQ ID NO: 13; reverse sequence […], designated herein as SEQ ID NO: 14; probe sequence […], designated herein as SEQ ID NO: 15). Normalized results are presented in the table below as percent APOE RNA, relative to the amount of APOE RNA in untreated control cells (% UTC). The half maximal inhibitory concentration (IC50) of each modified oligonucleotide was calculated in GraphPad Prism 10 (GraphPad Software, San Diego, CA) and is also presented in the table below.

[3] = system: human APOE RNA; experiment: Potency (dose response, ED50) in APOE C57BL/6NTac-Apoeem7250 knock-in mice, 4 weeks (Example 14); assay type: in vivo
Summary of the method: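 Knock-in mice (3–4 per group) received a single ICV bolus of oligonucleotide, with PBS as control. At four weeks, cortex and spinal cord RNA was analysed by RT-qPCR with a human primer probe set, normalized to mouse Ppia, and expressed as % PBS control. ED50 was calculated from the dose response.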

[4] = system: human APOE RNA; experiment: Duration of action study in APOE C57BL/6NTac-Apoeem7250 knock-in mice (Example 16); assay type: in vivo; conditions: 300 μg ICV
Summary of the method: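 Knock-in mice (2-4 per group) received a single ICV bolus of 300 μg oligonucleotide or PBS. At various timepoints, cortex and spinal cord human APOE RNA was measured by RT-qPCR (RTS3073), normalized to mouse Ppia and expressed as % of PBS control.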

[5] = system: human APOE RNA; experiment: Duration of action study in APOE C57BL/6NTac-Apoeem7250 knock-in mice (Example 18); assay type: in vivo; conditions: single ICV bolus 300 μg, APOE knock-in mice, normalized to mouse Ppia, relative to PBS
Summary of the method: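 Single 300 μg ICV bolus of modified oligonucleotide; PBS-bolus mice as controls. At various timepoints, cortex and spinal cord RNA quantified by RT-qPCR, human APOE normalized to mouse Ppia and expressed as % of PBS-treated control.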

Aes^mCeoTeoTesGesGksTdsGdzAdzAdzTds^mCdsTdsTdsTdsAdzTksTksAesAe (eA*e[5mC]eTeT*eG*kG*dT*dG[ms]dA[ms]dA[ms]dT*d[5mC]*dT*dT*dT*dA[ms]kT*kT*eA*eA) [Compound No. 1757576]
APOE RNA (% UTC) ([1]; 5 nM, HepG2, electroporation, 16-hour treatment): 86 % UTC
APOE RNA (% UTC) ([1]; 13 nM, HepG2, electroporation, 16-hour treatment): 74 % UTC
APOE RNA (% UTC) ([1]; 33 nM, HepG2, electroporation, 16-hour treatment): 80 % UTC
APOE RNA (% UTC) ([1]; 82 nM, HepG2, electroporation, 16-hour treatment): 84 % UTC
APOE RNA (% UTC) ([1]; 205 nM, HepG2, electroporation, 16-hour treatment): 74 % UTC
APOE RNA (% UTC) ([1]; 512 nM, HepG2, electroporation, 16-hour treatment): 61 % UTC
APOE RNA (% UTC) ([1]; 1,280 nM, HepG2, electroporation, 16-hour treatment): 45 % UTC
APOE RNA (% UTC) ([1]; 3,200 nM, HepG2, electroporation, 16-hour treatment): 32 % UTC
APOE RNA (% UTC) ([1]; 8,000 nM, HepG2, electroporation, 16-hour treatment): 22 % UTC
APOE RNA (% UTC) ([1]; 20,000 nM, HepG2, electroporation, 16-hour treatment): 7 % UTC
IC50 ([1]; HepG2, electroporation, 16-hour treatment): 820 nM
APOE RNA (% UTC) 5 nM ([1]; HepG2 cells, electroporation, 24-hour treatment, 5 nM, Table 8): 86 % UTC
APOE RNA (% UTC) 13 nM ([1]; HepG2 cells, electroporation, 24-hour treatment, 13 nM, Table 8): 81 % UTC
APOE RNA (% UTC) 33 nM ([1]; HepG2 cells, electroporation, 24-hour treatment, 33 nM, Table 8): 63 % UTC
APOE RNA (% UTC) 82 nM ([1]; HepG2 cells, electroporation, 24-hour treatment, 82 nM, Table 8): 67 % UTC
APOE RNA (% UTC) 205 nM ([1]; HepG2 cells, electroporation, 24-hour treatment, 205 nM, Table 8): 46 % UTC
APOE RNA (% UTC) 512 nM ([1]; HepG2 cells, electroporation, 24-hour treatment, 512 nM, Table 8): 23 % UTC
APOE RNA (% UTC) 1,280 nM ([1]; HepG2 cells, electroporation, 24-hour treatment, 1,280 nM, Table 8): 24 % UTC
APOE RNA (% UTC) 3,200 nM ([1]; HepG2 cells, electroporation, 24-hour treatment, 3,200 nM, Table 8): 11 % UTC
APOE RNA (% UTC) 8,000 nM ([1]; HepG2 cells, electroporation, 24-hour treatment, 8,000 nM, Table 8): 15 % UTC
APOE RNA (% UTC) 20,000 nM ([1]; HepG2 cells, electroporation, 24-hour treatment, 20,000 nM, Table 8): 2 % UTC
IC50 ([1]; reduction of human APOE RNA, HepG2 cells, electroporation, 24-hour treatment, Table 8): 140 nM
APOE RNA (% UTC) 5 nM ([2]; PPIA-normalized, 5 nM): 78 % UTC
APOE RNA (% UTC) 13 nM ([2]; PPIA-normalized, 13 nM): 74 % UTC
APOE RNA (% UTC) 33 nM ([2]; PPIA-normalized, 33 nM): 70 % UTC
APOE RNA (% UTC) 82 nM ([2]; PPIA-normalized, 82 nM): 56 % UTC
APOE RNA (% UTC) 205 nM ([2]; PPIA-normalized, 205 nM): 41 % UTC
APOE RNA (% UTC) 512 nM ([2]; PPIA-normalized, 512 nM): 25 % UTC
APOE RNA (% UTC) 1,280 nM ([2]; PPIA-normalized, 1,280 nM): 12 % UTC
APOE RNA (% UTC) 3,200 nM ([2]; PPIA-normalized, 3,200 nM): 6 % UTC
APOE RNA (% UTC) 8,000 nM ([2]; PPIA-normalized, 8,000 nM): 3 % UTC
APOE RNA (% UTC) 20,000 nM ([2]; PPIA-normalized, 20,000 nM): 7 % UTC
IC50 ([2]; reduction of human APOE RNA, PPIA-normalized): 90 nM
APOE RNA (% control) Cortex ([3]; cortex, ICV dose 10 μg): 108 % control
APOE RNA (% control) Cortex ([3]; cortex, ICV dose 30 μg): 121 % control
APOE RNA (% control) Cortex ([3]; cortex, ICV dose 100 μg): 63 % control
APOE RNA (% control) Cortex ([3]; cortex, ICV dose 300 μg): 37 % control
APOE RNA (% control) Cortex ([3]; cortex, ICV dose 700 μg): 31 % control
ED 50 (μg) Cortex ([3]; cortex, single ICV bolus, GraphPad Prism 10): 235.5 µg
APOE RNA (% control) Spinal Cord ([3]; spinal cord, ICV dose 10 μg): 58 % control
APOE RNA (% control) Spinal Cord ([3]; spinal cord, ICV dose 30 μg): 55 % control
APOE RNA (% control) Spinal Cord ([3]; spinal cord, ICV dose 100 μg): 23 % control
APOE RNA (% control) Spinal Cord ([3]; spinal cord, ICV dose 300 μg): 20 % control
APOE RNA (% control) Spinal Cord ([3]; spinal cord, ICV dose 700 μg): 18 % control
ED 50 (μg) Spinal Cord ([3]; spinal cord, single ICV bolus, GraphPad Prism 10): 23.0 µg
APOE RNA (% control) Cortex ([4]; 7 days post-dose): 45 % control
APOE RNA (% control) Cortex ([4]; 14 days post-dose): 32 % control
APOE RNA (% control) Spinal Cord ([4]; 7 days post-dose): 42 % control
APOE RNA (% control) Spinal Cord ([4]; 14 days post-dose): 25 % control
APOE RNA (% control) Cortex ([5]; 196 days post-dose): 71 % control
APOE RNA (% control) Cortex ([5]; 224 days post-dose): 92‡ % control
APOE RNA (% control) Cortex ([5]; 285 days post-dose): 87 % control
APOE RNA (% control) Spinal Cord ([5]; 196 days post-dose): 28 % control
APOE RNA (% control) Spinal Cord ([5]; 224 days post-dose): 33‡ % control
APOE RNA (% control) Spinal Cord ([5]; 285 days post-dose): 86 % control

From patent publication US20250353873A1, “COMPOUNDS AND METHODS FOR MODULATING APOE EXPRESSION” (Ionis Pharmaceuticals, Inc., priority 2024, published 2025)
